Data reported in patent publication US8324390B2, “Tetrazole-substituted anthranilamides as pesticides” (Bayer CropScience AG, priority 2008, dated 2012).
Read-outs that look alike come from different tables or passages of the source.

Columns and labels:
[1] = tested on: larvae of the mustard beetle (Phaedon cochleariae); test: Phaedon test (PHAECO spray treatment); settings: 7 days
[2] = log P determination by HPLC (EEC Directive 79/831 Annex V.A8); assay type: physicochemical
Protocol: The measurements were carried out using an Agilent 1100 LC system with a 50*4.6 Zorbax Eclipse C18 1.8 μm column (oven temperature 55° C., flow rate 2.0 ml/min).
The following mobile phases were used:
Mobile phase A: acetonitrile+1000 μl of formic acid/l
Mobile phase B: Millipore water+900 μl of formic acid/l

[3] = tested on: caterpillars of the armyworm (Spodoptera frugiperda); test: Spodoptera frugiperda test (SPODFR spray treatment); assay type: in vivo; settings: for pest or weed control at 100 g/ha: Spodoptera frugiperda, foliar, read-out: effect in % (caterpillars killed)
From the text: Solvent: 78.0 parts by weight of acetone

[4] = application rate 100 g/ha, maize leaf discs
[5] = reversed-phase HPLC, Zorbax Eclipse C18 column, determined by HPLC according to EEC Directive 79/831 Annex V.A8, read-out: log P

Structure (SMILES) | chromatographic logP ([2]; log P) | pest or weed control at 100 g/ha ([3]; in Zea mays) [%] | chromatographic logP [2, 5] | further results
Cc1cc(Cl)cc(C(=O)NC(C)C)c1NC(=O)c1cc(Cn2nnc(-c3ccc(Br)cc3)n2)nn1-c1ncccc1Cl |  |  |  | Kill in %/7 days ([1]; 0.8 g/ha): 0%
CCNC(=O)c1cc(F)cc(C)c1NC(=O)c1cc(Cn2nnc(C(F)(F)F)n2)nn1-c1ncccc1Cl [Example 35] | 2.88 | ≥ 80 |  | 
Cc1cc(F)cc(C(=O)NC2CCC2)c1NC(=O)c1cc(Cn2nnc(C(F)(F)F)n2)nn1-c1ncccc1Cl [Example 51] | 3.23 | ≥ 80 |  | 
Cc1cc(C)c(NC(=O)c2cc(Cn3nnc(C(F)(F)F)n3)nn2-c2ncccc2Cl)c(C(=O)NC(C)C)c1 [Example 79] | 3.29 | ≥ 80 |  | 
Cc1cc(C)c(NC(=O)c2cc(Cn3nnc(C(F)(F)F)n3)nn2-c2ncccc2Cl)c(C(=O)NCC2CC2)c1 [Example 83] | 3.35 | ≥ 80 |  | 
Cc1cc(C#N)cc(C(=O)NC(C)C2CCC2)c1NC(=O)c1cc(Cn2nnc(C(F)(F)F)n2)nn1-c1ncccc1Cl (stereo not shown) [Example 90] | 3.63 |  |  | 
Cc1cc(C#N)cc(C(=O)NCCCCCCO)c1NC(=O)c1cc(Cn2nnc(C(F)(F)F)n2)nn1-c1ncccc1Cl [Example 94] | 2.71 |  |  | 
Cc1cc(Cl)cc(C(N)=O)c1NC(=O)c1cc(Cn2nnc(C(F)(F)F)n2)nn1-c1ncccc1Cl [Example 106] | 2.76 | ≥ 80 |  | 
Cc1cc(I)cc(C(=O)NC(C)(C)C)c1NC(=O)c1cc(Cn2nnc(C(F)(F)F)n2)nn1-c1ncccc1Cl [Example 118] | 4.12 | ≥ 80 |  | 
Cc1cc(C#N)cc(C(=O)NCCN)c1NC(=O)c1cc(Cn2nnc(C(F)(F)F)n2)nn1-c1ncccc1Cl [Example 123] | 1.63 |  |  | 
Cc1cc(C#N)cc(C(=O)NCC2CC2(Cl)Cl)c1NC(=O)c1cc(Cn2nnnc2C(F)(F)F)nn1-c1ncccc1Cl (stereo not shown) [Example 190] | 3.16 | ≥ 80 |  | 
CSC[C@H](C)NC(=O)c1cc(C#N)cc(C)c1NC(=O)c1cc(Cn2nnnc2C(F)(F)F)nn1-c1ncccc1Cl [Example 193] | 2.92 |  |  | 
COCCNC(=O)c1cc(C#N)cc(C)c1NC(=O)c1cc(Cn2nnnc2C(F)(F)F)nn1-c1ncccc1Cl [Example 209] | 2.4 |  |  | 
CSC[C@H](C)NC(=O)c1cc(C#N)cc(C)c1NC(=O)c1cc(Cn2nnc(C(F)F)n2)nn1-c1ncccc1Cl [Example 268] | 2.77 | ≥ 80 |  | 
Cc1cc(I)cc(C(=O)NC2CC2)c1NC(=O)c1cc(Cn2nnc(C(F)F)n2)nn1-c1ncccc1Cl [Example 275] | 2.96 | ≥ 80 |  | 
CCNC(=O)c1cc(I)cc(C)c1NC(=O)c1cc(Cn2nnc(C(F)F)n2)nn1-c1ncccc1Cl [Example 276] | 2.98 |  |  | 
CSC[C@H](C)NC(=O)c1cc(I)cc(C)c1NC(=O)c1cc(Cn2nnc(C(F)F)n2)nn1-c1ncccc1Cl [Example 278] | 3.41 | ≥ 80 |  | 
CC(NC(=O)c1cc(Cl)cc(Cl)c1NC(=O)c1cc(Cn2nnc(C(F)F)n2)nn1-c1ncccc1Cl)C1CC1 (stereo not shown) [Example 283] | 3.23 |  |  | 
CCNC(=O)c1cc(Cl)cc(Cl)c1NC(=O)c1cc(Cn2nnc(C(F)F)n2)nn1-c1ncccc1Cl [Example 285] | 2.7 | ≥ 80 |  | 
CSC[C@H](C)NC(=O)c1cc(Cl)cc(Cl)c1NC(=O)c1cc(Cn2nnc(C(F)F)n2)nn1-c1ncccc1Cl [Example 288] | 3.13 | ≥ 80 |  | 
CNC(=O)c1cc(F)cc(C)c1NC(=O)c1cc(Cn2nnc(C(F)F)n2)nn1-c1ncccc1Cl [Example 292] | 2.21 | ≥ 80 |  | 
Cc1cc(F)cc(C(=O)NC(C)C2CC2)c1NC(=O)c1cc(Cn2nnc(C(F)F)n2)nn1-c1ncccc1Cl (stereo not shown) [Example 293] | 2.92 | ≥ 80 |  | 
Cc1cc(F)cc(C(=O)NC2CC2)c1NC(=O)c1cc(Cn2nnc(C(F)F)n2)nn1-c1ncccc1Cl [Example 294] | 2.41 | ≥ 80 |  | 
Cc1cc(Br)cc(C(=O)NC(C)C)c1NC(=O)c1cc(Cn2nnc(C(F)F)n2)nn1-c1ncccc1Cl [Example 299] | 3.08 | ≥ 80 |  | 
Cc1cc(C#N)cc(C(N)=O)c1NC(=O)c1cc(Cn2nnc(C(F)F)n2)nn1-c1ncccc1Cl [Example 306] | 1.97 | ≥ 80 |  | 
Cc1cc(I)cc(C(=O)NC(C)(C)C)c1NC(=O)c1cc(Cn2nnc(C(F)F)n2)nn1-c1ncccc1Cl [Example 307] | 3.5 | ≥ 80 |  | 
Cc1cc(C#N)cc(C(N)=O)c1NC(=O)c1cc(Cn2nnc(C(F)(F)F)n2)nn1-c1ncccc1Br [Example 324] |  |  |  | chromatographic logP ([2]; reversed-phase HPLC, Zorbax Eclipse C18 column, by HPLC according to EEC Directive 79/831 Annex V.A8, read-out: log P): 2.46; pest or weed control at 100 g/ha [3, 4]: ≥ 80%

Structure (SMILES) | chromatographic logP ([2]; log P) | pest or weed control at 100 g/ha ([3]; in Zea mays) [%] | chromatographic logP [2, 5] | further results
Cc1cc(C#N)cc(C(=O)NC(C)C#N)c1NC(=O)c1cc(Cn2nnc(C(F)(F)F)n2)nn1-c1ncccc1Cl (stereo not shown) [Example 326] | 2.76 | ≥ 80 |  | 
COCC(C)(C)NC(=O)c1cc(C#N)cc(C)c1NC(=O)c1cc(Cn2nnc(C(F)(F)F)n2)nn1-c1ncccc1Cl [Example 356] | 3.29 |  |  | 
Cc1cc(Br)cc(C(=O)NC(C)(C)C)c1NC(=O)c1cc(Cn2nnc(C(F)(F)F)n2)nn1-c1ncccc1Br [Example 409] |  |  | 4 | 
Cc1cc(C#N)cc(C(=O)NCCC(F)(F)F)c1NC(=O)c1cc(Cn2nnc(C(F)(C(F)(F)F)C(F)(F)F)n2)nn1-c1ncccc1Cl [Example 414] |  |  | 3.92 | 
CNC(=O)c1cc(Cl)cc(C)c1NC(=O)c1cc(Cn2nnc(C(F)(F)C(F)(F)F)n2)nn1-c1ncccc1Br [Example 415] |  |  | 3.36 | 
Cc1cc(C#N)cc(C(=O)NCC#N)c1NC(=O)c1cc(Cn2nnc(C(F)(F)C(F)(F)F)n2)nn1-c1ncccc1Br [Example 416] |  |  | 2.8 | 
Cc1cc(Cl)cc(C(=O)NC(C)C)c1NC(=O)c1cc(Cn2nnc(C(F)(F)C(F)(F)F)n2)nn1-c1ncccc1Br [Example 417] |  |  | 3.87 | 
Cc1cc(Cl)cc(C(N)=O)c1NC(=O)c1cc(Cn2nnc(C(F)(F)C(F)(F)F)n2)nn1-c1ncccc1Br [Example 418] |  |  | 3.13 | 
Cc1cc(Cl)cc(C(=O)NC(C)(C)C)c1NC(=O)c1cc(Cn2nnc(C(F)(F)C(F)(F)F)n2)nn1-c1ncccc1Br [Example 419] |  |  | 4.23 | 
Cc1cc(Cl)cc(C(=O)NC2CC2)c1NC(=O)c1cc(Cn2nnc(C(F)(F)C(F)(F)F)n2)nn1-c1ncccc1Br [Example 420] |  |  | 3.62 | 
Cc1cc(Cl)cc(C(=O)NCC#N)c1NC(=O)c1cc(Cn2nnc(C(F)(F)C(F)(F)F)n2)nn1-c1ncccc1Br [Example 421] |  |  | 3.31 | 
CNC(=O)c1cc(C#N)cc(C)c1NC(=O)c1cc(Cn2nnc(C(F)(F)C(F)(F)F)n2)nn1-c1ncccc1Br [Example 422] |  |  | 3.03 | 
CCNC(=O)c1cc(C#N)cc(C)c1NC(=O)c1cc(C(C)n2nnc(C(F)(F)F)n2)nn1-c1ncccc1Cl (stereo not shown) [Example 429] | 3.11 |  |  | 
Cc1cc(C#N)cc(C(N)=O)c1NC(=O)c1cc(Cn2nnc(C(F)(F)F)n2)nn1-c1ccccc1Cl [Example 439] |  |  | 2.82 | 
Cc1cc(Br)cc(C(=O)NCC#N)c1NC(=O)c1cc(Cn2nnnc2C(F)(F)F)nn1-c1ncccc1C(F)(F)F [Example 451] |  |  | 2.9 | 
Cc1cc(Br)cc(C(N)=O)c1NC(=O)c1cc(Cn2nnnc2C(F)(F)F)nn1-c1ncccc1C(F)(F)F [Example 454] |  |  | 2.72 | 
Cc1cc(Br)cc(C(=O)NC(C)(C)C)c1NC(=O)c1cc(Cn2nnnc2C(F)(F)F)nn1-c1ncccc1C(F)(F)F [Example 458] |  |  | 3.78 | pest or weed control at 100 g/ha [3, 4]: ≥ 80%
Cc1cc(C#N)cc(C(=O)NC(C)(C)C)c1NC(=O)c1cc(Cn2nnnc2C(F)(F)F)nn1-c1ccccc1Cl [Example 489] |  |  | 3.52 | pest or weed control at 100 g/ha [3, 4]: ≥ 80%
CNC(=O)c1cc(Cl)cc(C)c1NC(=O)c1cc(Cn2nnnc2C(F)(F)F)nn1-c1ccccc1 [Example 502] |  |  | 2.84 | pest or weed control at 100 g/ha [3, 4]: ≥ 80%
CNC(=O)c1cc(S(C)(=O)=O)cc(C)c1NC(=O)c1cc(Cn2nnnc2C(F)(F)F)nn1-c1ccccc1Cl [Example 524] |  |  | 2.43 | 
Cc1cc(Cl)cc(C(=O)NC(C)(C)C)c1NC(=O)c1cc(Cn2nnc(C(F)(F)F)n2)nn1-c1ccccc1Cl [Example 534] |  |  | 4.36 | pest or weed control at 100 g/ha [3, 4]: ≥ 80%
Cc1cc(Cl)cc(C(=O)NC(C)(C)C)c1NC(=O)c1cc(Cn2nnnc2C(F)(F)C(F)(F)F)nn1-c1ccccc1Cl [Example 536] |  |  | 4.41 | pest or weed control at 100 g/ha [3, 4]: ≥ 80%
Cc1cc(Cl)cc(C(=O)NC(C)C)c1NC(=O)c1cc(Cn2nnc(C(F)(F)C(F)(F)F)n2)nn1-c1ncccc1Cl [drawing 595] |  |  |  | Kill in %/7 days ([1]; 0.8 g/ha): 100%
CNC(=O)c1cc(Cl)cc(C)c1NC(=O)c1cc(Cn2nnnc2C(F)(F)F)nn1-c1ncccc1Cl [drawing 597] |  |  |  | Kill in %/7 days ([1]; 4 g/ha): 67%
Cc1cc(Cl)cc(C(=O)NC(C)C)c1NC(=O)c1cc(Cn2nnc(C(F)(F)C(F)(F)F)n2)nn1-c1ncccc1Cl [drawing 599] |  |  |  | Kill in %/7 days ([3]; 0.8 g/ha): 100%
CNC(=O)c1cc(Cl)cc(C)c1NC(=O)c1cc(Cn2nnnc2C(F)(F)F)nn1-c1ncccc1Cl [drawing 601] |  |  |  | Kill in %/7 days ([3]; 4 g/ha): 100%
CNC(=O)c1cc(Cl)cc(C)c1NC(=O)c1cc(Cn2nnnc2-c2ccc(C(F)(F)F)cc2)nn1-c1ncccc1Cl [drawing 602] |  |  |  | Kill in %/7 days ([3]; 4 g/ha): 33%
